Assay results reported in ChEMBL document CHEMBL5046288, “Design, Synthesis, and Bioevaluation of 2-Aminopteridin-7(8H)-one Derivatives as Novel Potent Adenosine A2A Receptor Antagonists for Cancer Immunotherapy” (J Med Chem, 2022).
The source made the active and inactive calls. No cut-off for these calls is given here.

Tests used:
Adenosine receptor A2a [1] = target: T1, Adenosine receptor A2a (Homo sapiens, UniProt P29274); experiment: Antagonist activity at human A2aR expressed in HEK293 cells assessed as reduction in cAMP production incubated for 60 mins by ultra LANCE cAMP detection assay; format: functional, cell-based
T1 sequence (P29274 whole entry): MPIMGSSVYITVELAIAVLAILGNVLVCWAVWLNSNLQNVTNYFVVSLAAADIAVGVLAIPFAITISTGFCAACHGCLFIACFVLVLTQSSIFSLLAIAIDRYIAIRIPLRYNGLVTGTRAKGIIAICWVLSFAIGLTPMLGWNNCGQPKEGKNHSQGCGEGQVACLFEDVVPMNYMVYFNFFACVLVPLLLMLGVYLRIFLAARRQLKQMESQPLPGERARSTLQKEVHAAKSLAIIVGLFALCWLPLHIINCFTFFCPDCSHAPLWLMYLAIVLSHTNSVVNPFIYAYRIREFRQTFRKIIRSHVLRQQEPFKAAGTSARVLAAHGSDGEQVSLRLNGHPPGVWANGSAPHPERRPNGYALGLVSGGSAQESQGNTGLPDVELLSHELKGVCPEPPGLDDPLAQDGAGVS

HCT-116 [2] = experiment: Cytotoxicity against human HCT-116 cells co-cultured with Ion/PMA-activated human Jurkat T cells assessed as reversal of NECA-induced suppression of cytotoxic function of Jurkat T cell by measuring survival rate at E:T ratio of 6:1 at 10 uM measured after 48 hrs by crystal violet staining based colony assay; format: functional
Jurkat = experiment: Upregulation of NECA-suppressed IL-2 mRNA level in Ion/PMA-activated human Jurkat T cells at 10 uM by Q-PCR analysis; format: functional, cell-based
Homo sapiens [3] = species on record: Homo sapiens; experiment: Selectivity ratio of IC50 for human A3R to IC50 for human A2aR
Homo sapiens [4] = species on record: Homo sapiens; experiment: Selectivity ratio of IC50 for human A2BR to IC50 for human A2aR
Adenosine receptor A2a [5] = target: T1, Adenosine receptor A2a; experiment: Antagonist activity at human A2aR expressed in HEK293 cells assessed as reduction in NECA-induced cAMP production incubated for 20 mins in presence of 20 nM NECA by GloSensor cAMP detection assay; format: functional, cell-based
MC-38 = experiment: Cytotoxicity against mouse MC38 cells assessed as reduction in cell viability incubated for 24 hrs by MTS assay; format: toxicity, cell-based; conditions: mc-38, 24 h
Adenosine receptor A2a [6] = target: T1, Adenosine receptor A2a; experiment: Antagonist activity at human A2aR expressed in HEK293 cells assessed as reduction in NECA-induced cAMP production incubated for 20 mins in presence of 1 uM NECA by ultra LANCE cAMP detection assay; format: functional, cell-based
[7] = Metabolic stability in mouse liver microsomes assessed as half life at […] measured up to 60 mins in presence of NADPH by HPLC-MS/MS analysis; format: ADME, Microsome
[8] = Upregulation of NECA-suppressed IL-2 protein level in Ion/PMA-activated human Jurkat T cells at 10 uM by Western blotting analysis; format: functional
HCT-116 [9] = experiment: Cytotoxicity against human HCT116 cells assessed as reduction in cell viability incubated for 24 hrs by MTS assay; format: toxicity, cell-based; conditions: hct-116, 24 h
Adenosine receptor A2a [10] = target: T1, Adenosine receptor A2a; experiment: Antagonist activity at human A2aR expressed in HEK293 cells assessed as reduction in NECA-induced cAMP production incubated for 20 mins in presence of 40 nM NECA by ultra LANCE cAMP detection assay; format: functional, cell-based
Homo sapiens [11] = species on record: Homo sapiens; experiment: Selectivity ratio of IC50 for human A1R to IC50 for human A2aR

SMILES	IC50 (Adenosine receptor A2a [1]) [nM]	other results
COc1cnc(N2CCN(CCn3c(=O)cnc4c(-c5ccc(C)o5)nc(N)nc43)CC2)c(F)c1	5.5	–
Cc1ccc(-c2nc(N)nc3c2ncc(=O)n3Cc2ccccc2)o1	482	–
COc1ccc(N2CCN(CCn3c(=O)cnc4c(-c5ccc(C)o5)nc(N)nc43)CC2)nc1	213	–
Cc1ccc(-c2nc(N)nc3c2ncc(=O)n3CCN2CCN(c3ccccc3F)CC2)o1	11.7	–
COc1ccc(N2CCN(CCn3c(=O)cnc4c(-c5ccc(C)o5)nc(N)nc43)C[C@@H]2C)cc1	224	–
Cc1ccc(-c2nc(N)nc3c2ncc(=O)n3CCN2CCN(c3ccc(OC(F)F)cc3)CC2)o1	63.7	–
COc1ccc(N2CCCN(CCn3c(=O)cnc4c(-c5ccc(C)o5)nc(N)nc43)CC2)cc1	716	–
Cc1ccc(-c2nc(N)nc3c2ncc(=O)n3CCN2CCN(C)CC2)o1	> 10000	–
Cc1ccc(-c2nc(N)nc3c2ncc(=O)n3CCN2CCC(c3ccccc3)CC2)o1	388	–
Cc1ccc(-c2nc(N)nc3c2NC(=O)CN3Cc2ccccc2)o1	> 10000	–
COc1ccc(Cn2c(=O)cnc3c(-c4ccc(C)o4)nc(N)nc32)cc1	> 10000	–
Cc1ccc(-c2nc(N)nc3c2ncc(=O)n3CCN2CCN(c3ccccc3OC(F)(F)F)CC2)o1	> 10000	–
COc1ccc(N2CCC(N(C)CCn3c(=O)cnc4c(-c5ccc(C)o5)nc(N)nc43)C2)cc1 (centres undefined)	> 10000	–
Cc1ccc(-c2nc(N)nc3c2ncc(=O)n3CCN2CCN(c3ccc(F)cc3F)CC2)o1	8.5	–
Cc1ccc(-c2nc(N)nc3c2ncc(=O)n3Cc2ccco2)o1	2170	–
Cc1ccc(-c2nc(N)nc3c2ncc(=O)n3CCN2CCN(c3cccc(F)c3)CC2)o1	57.5	–
Cc1ccc(-c2nc(N)nc3c2ncc(=O)n3CCN2CCN(c3ccc(F)cc3Cl)CC2)o1	86.5	–
Cc1ccc(-c2nc(N)nc3c2ncc(=O)n3CCN2CCN(C3CCCC3)CC2)o1	> 10000	–
Cc1ccc(-c2nc(N)nc3c2ncc(=O)n3CCN2CCN(c3ccc(F)cc3)CC2)o1	58.8	–
COc1ccc(N2CCN(CCn3c(=O)cnc4c(-c5ccc(C)o5)nc(N)nc43)CC2)cn1	29.5	–
Cc1ccc(-c2nc(N)nc3c2ncc(=O)n3CCCCc2ccccc2)o1	980	–
COc1ccc(N2CCN(CCn3c(=O)cnc4c(-c5ccc(C)o5)nc(N)nc43)C[C@H]2C)cc1	37.5	–
COc1ccc(N2C[C@@H]3C[C@H]2CN3CCn2c(=O)cnc3c(-c4ccc(C)o4)nc(N)nc32)cc1	> 10000	–

SMILES	IC50 (Adenosine receptor A2a [1]) [nM]	other results
Cc1ccc(-c2nc(N)nc3c2ncc(=O)n3CCN2CCN(c3ccc(OC(F)(F)F)cc3)CC2)o1	120	–
Cc1ccc(-c2nc(N)nc3c2ncc(=O)n3CC2CC2)o1	1010	–
COc1ccc(N(C)C2CN(CCn3c(=O)cnc4c(-c5ccc(C)o5)nc(N)nc43)C2)cc1	> 10000	–
Cc1ccc(-c2nc(N)nc3c2ncc(=O)n3CCN2CCN(c3ccc(C(F)(F)F)cc3)CC2)o1	176	–
Cc1ccc(-c2nc(N)nc3c2CCN(Cc2ccccc2)C3)o1	> 10000	–
Cc1ccc(-c2nc(N)nc3c2[nH]c(=O)n3Cc2ccccc2)o1	1030	–
COc1cccc(Cn2c(=O)cnc3c(-c4ccc(C)o4)nc(N)nc32)c1	476	–
COc1ccc(N2C[C@H](C)N(CCn3c(=O)cnc4c(-c5ccc(C)o5)nc(N)nc43)C[C@H]2C)cc1	2020	–
Cc1ccc(-c2nc(N)nc3c2ncc(=O)n3CC2CCN(c3ccccc3)CC2)o1	> 10000	–
COCCOc1ccc(N2CCN(CCn3c(=O)cnc4c(-c5ccc(C)o5)nc(N)nc43)CC2)cc1	23.8	–
Cc1ccc(-c2nc(N)nc3c2ncc(=O)n3CCN2CCN(c3ccc(Oc4ccccc4)cc3)CC2)o1	605	–
Cc1ccc(-c2nc(N)nc3c2ncc(=O)n3Cc2cccc(C(F)(F)F)c2)o1	> 10000	–
Cc1ccc(-c2nc(N)nc3c2ncc(=O)n3CCCc2ccccc2)o1	712	–
Cc1ccc(-c2nc(N)nc3c2ncc(=O)n3CCN2CCN(c3cccc(OC(F)(F)F)c3)CC2)o1	> 10000	–
Cc1ccc(-c2nc(N)nc3c2ncc(=O)n3CC2CCCCC2)o1	1880	–
COc1ccc(N(C)C2CCN(CCn3c(=O)cnc4c(-c5ccc(C)o5)nc(N)nc43)C2)cc1 (centres undefined)	> 10000	–
COc1ccccc1N1CCN(CCn2c(=O)cnc3c(-c4ccc(C)o4)nc(N)nc32)CC1	3810	–
Cc1ccc(-c2nc(N)nc3c2n(C)c(=O)n3Cc2ccccc2)o1	2830	–
COc1ccc(N2CCN(CCn3c(=O)cnc4c(-c5ccc(C)o5)nc(N)nc43)[C@@H](C)C2)c(F)c1	8.3	Activity (HCT-116 [2]): 48.6%; Activity (Jurkat): inactive; Ratio IC50 (Homo sapiens [3]): > 1000; Ratio IC50 (Homo sapiens [4]): > 1000; IC50 (Adenosine receptor A2a [5]): 6.6 nM; Activity (MC-38): Non-Toxic; IC50 (Adenosine receptor A2a [6]): 180 nM; half-life [7]: 38.5 min; fold change (FC) [8]: 3.77; Activity (HCT-116 [9]): Non-Toxic; IC50 (Adenosine receptor A2a [10]): 8.3 nM; Ratio IC50 (Homo sapiens [11]): > 1000
Cc1ccc(-c2nc(N)nc3c2ncc(=O)n3CCN2CCN(c3ccc(OC(F)F)cc3F)CC2)o1	21	–
COc1ccc(N2CC3CCC(C2)N3CCn2c(=O)cnc3c(-c4ccc(C)o4)nc(N)nc32)cc1	555	–
COc1ccc(N2CCN(CCn3c(=O)cnc4c(-c5ccc(C)o5)nc(N)nc43)CC2)c(F)c1	4.9	half-life [7]: 5.1 min
COCCOc1ccc(N2CCN(CCn3c(=O)cnc4c(-c5ccc(C)o5)nc(N)nc43)CC2)c(F)c1F	9.3	–
